Experimental findings from patent EP0709099A2, “An aqueous nasal suspension comprising cyclodextrin” (Senju Pharmaceutical Co., Ltd., priority 1994, dated 1996) are described below.

A short description of the series: Stability constant of the drug in relation to cyclodextrin (solubility method, Higuchi et al.). The format is physicochemical. The conditions noted are these: 25°C, 24 hours shaking. The protocol:
The stability constant of the drug in relation to cyclodextrin calculated by the solubility method is determined in the manner that, with the concentration of each drug being kept unchanged, a mixture of the drug and a cyclodextrin solution of varying concentration is shaken on a shaker at the rate of 200 cycles/min at 25°C for 24 hours to construct a solubility phase diagram of the drug at saturation in cyclodextrin solution and the stability constant is calculate by the method of Higuchi et al. [Advances in Analytical Chemistry and Instrumentation, Vol. 4, 144-148 (1965)].
The stability constant of the drug in relation to cyclodextrin was calculated applying the formula (8) on page 146, in "Advances in Analytical Chemistry and Instrumentation", Vol. 4, (1965).

`CC(=O)[C@@]1(O)CC[C@H]2[C@@H]3C[C@H](C)C4=CC(=O)C=C[C@]4(C)[C@@]3(F)[C@@H](O)C[C@@]21C` [Fluorometholone]: the “Stability Constant α-CyD” value came out at 54 and the “Stability Constant β-CyD” value turned out to be 911.
The matching figures for `CCOC(=O)O[C@]1(C(=O)OCCl)CC[C@H]2[C@@H]3CCC4=CC(=O)C=C[C@]4(C)[C@H]3[C@@H](O)C[C@@]21C` [Loteprednol Etabonate]: 114 and 305.
